According to paper PMC11604048, “Constrained TACC3 peptidomimetics for a non-canonical protein–protein interface elucidate allosteric communication in Aurora-A kinase” (Chemical Science, 2024):
Each block holds one molecule with its values, some of them ahead of it. *1 amine or outer side, *2 acyl side, *3 side chain or, on linkers, in order; H or OH if unused. Where a SMILES comes first, the peptide text is derived from it. Bridges are numbered along the chain shown (N, C = ends). Where no end group is shown, it is not given here. [ ]: non-standard residue; d: D form. The star is where a group is joined. 5FAM = O=C1OC2(c3ccc(O)cc3Oc3cc(O)ccc32)c2ccc(C(=O)*)cc21; Biphenyl(4,4'-CH2)2 = c1cc(-c2ccc(C[*:2])cc2)ccc1C[*:1]; Pro(trans-4-F) = O=C(O)[C@@H]1C[C@@H](F)CN1; Phe(4-Br) = N[C@@H](Cc1ccc(Br)cc1)C(=O)O; Phe(4-Cl) = N[C@@H](Cc1ccc(Cl)cc1)C(=O)O; Phe(4-I) = N[C@@H](Cc1ccc(I)cc1)C(=O)O; Nle = CCCC[C@H](N)C(=O)O; Ahx = NCCCCCC(=O)O

Experiments:
[1] = Peptide enzymatic degradation assay, α-chymotrypsin; format: in vitro ADME, bovine; conditions: isolated enzyme chymotrypsin; α-chymotrypsin (bovine pancreas), peptide 100 µM, peptide/enzyme molar ratio [P]/[E]= 25, HEPES 25 mM, pH 7.5, 25 °C, 6 hours; RP-HPLC peak area, exponential decay fit; three independent experiments, mean ± SD; SD; read-out: t1/2 in the presence of α-chymotrypsin
Description: into individual aliquots at -20 °C. […]
a concentration of 1 mg mL−1 concentration. The digestion samples were immediately prepared by mixing […]
were then incubated at 25 °C for 6 hours. […]
thermo-shaker for 6 hours. […]
presence of enzyme (t=0). […]
(§1) r = r଴ + A x e భ Eq. (SI - 10)
τ = tଵ ln(2) Eq. (SI - 11)
In all cases, control samples were […]
replicates and error bars indicating the corresponding SD. […]

[2] = target: T1, Aurora-A122-403-C290A/C393A (Homo sapiens, UniProt O14965, C290A/C393A); assay: Competition FA assay against FAM-Ahx-TACC3 522-536 tracer; format: binding; conditions: SD; read-out: IC50
T1 construct: Human Aurora-A kinase domain 122-403 wild-type or C290A/ C393A mutant; His tag (pET30TEV vector) (N, cleaved yes); made in house; host or cells: E. coli RIL, co-expressed with lambda phosphatase (Aurora-A); tracer by solid phase synthesis
T1 sequence (O14965 122-403 C290A/C393A): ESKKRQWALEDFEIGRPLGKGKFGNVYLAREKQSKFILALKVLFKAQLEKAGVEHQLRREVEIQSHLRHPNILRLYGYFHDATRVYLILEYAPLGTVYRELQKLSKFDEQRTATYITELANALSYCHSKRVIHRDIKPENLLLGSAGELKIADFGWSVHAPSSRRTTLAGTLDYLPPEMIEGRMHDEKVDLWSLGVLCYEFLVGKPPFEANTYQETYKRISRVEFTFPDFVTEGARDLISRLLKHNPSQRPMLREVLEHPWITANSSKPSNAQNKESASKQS

[3] = target: T1, Aurora-A122-403-C290A/C393A; assay: Isothermal titration calorimetry (ITC); format: binding; conditions: ITC as E13
Description: Isothermal titration calorimetry (ITC). ITC experiments were carried out using a MicroCal PEAQ-ITC system (Malvern Panalytical) at 25 °C. A stock solution of Aurora-A 122-403-290A/C393A was dialyzed into ITC buffer overnight (25 mM Tris buffer, pH= 7.5; 150 mM NaCl; 5 mM MgCl2; 5 % v/v glycerol), and the same buffer was employed to resuspend a solid portion of the testing peptides. For each experiment, initially, the cell was filled with 275 µl of Aurora-A122-403-290A/C393A (46 μM) and the syringe was loaded with the corresponding peptide at 1.25 mM concentration. An initial injection of 0.5 μL was then followed by 13 injections of 3 μL, every 150 s, with a constant syringe rotation speed of 750 rpm throughout. The signal for the enthalpy of dilution of each peptide into buffer was independently measured in a control titration experiment and then subtracted from the experimental binding traces. The Kd, ΔG°, ΔH° and -TΔS° values were determined via the MicroCal PEAQ-ITC analysis software (Malvern Paranalytical) using a single-site binding model. […]

[4] = target: T1, Aurora-A122-403-C290A/C393A; assay: Variable-temperature fluorescence anisotropy (VT-FA) Van't Hoff analysis; format: binding
Description: Variable-temperature fluorescence anisotropy (VT-FA) Van't Hoff analysis. Variable temperature-fluorescent anisotropy assays were performed in 384-well plates (Greiner Bio-one) with Aurora-A 122-403-290A/C393A protein dialyzed into different assay buffers before use. In this experiment, we prepared five […]
Buffer 1 – 25 mM HEPES, 150 mM NaCl, 5 mM MgCl2, pH= 7.5, Buffer 2 – 25 mM Tris, 150 mM NaCl, 5 mM MgCl2, pH= 7.5, Buffer 3 – 25 mM HEPES, 5 mM MgCl2, pH= 7.5, Buffer 4– 25 mM HEPES, 150 mM NaCl, 5 mM MgCl2, pH= 6.0, Buffer 5– 25 mM HEPES, 150 mM NaCl, 5 mM MgCl2, pH= 8.0, The protein concentration in the first well started at 237 μM in the corresponding buffer, and was diluted over 16 points in a 1/2 dilution regime. The concentration of the labeled peptide was fixed at 50 nM per well. After incubation of the plate at room temperature for 1 h, the plates were read at increasing intervals of 2.5°C, following a minimum period of 5 min equilibration at each temperature. The data was processed as previously described and the ln Ka at each temperature plotted against 1/T (K). The ΔG°, ΔH° and -T*ΔS° were calculated according to Van’t Hoff’s equation (6): […]
as §1
τ = tଵ ln(2) Eq. (SI - 11) […]
Western blots were performed using an anti-Phospho-Thr288

[5] = target: T1, Aurora-A122-403-C290A/C393A; assay: FA direct binding assay (Aurora-A titrated into FAM-Ahx-labelled peptide); set-up: ΔG: unit not given here; conditions: 50 nM fluorescein-labelled peptide
Description: Fluorescence anisotropy (FA) assays – General information.
All assays were performed using 384-well plates(Greiner Bio-one, UK). […]
produced as described previously.11 All samples were prepared in 25 mM Tris,150 mM NaCl, 5 mM MgCl2, […]
(PerkinElmer; Waltham, MA, USA).The parameters were set as follows: Excitation wavelength = 480 nm […]
Measured data were processed and analysed as previously described.12 Specifically, the perpendicular intensity (P) and parallel intensity (S) were subtracted by the control values and used for calculations of intensity and anisotropy using the following Equations 1, 2, 3, 4, and 5:
I= (2PG) + S Eq. (SI − 5)
r = (S − PG) Eq. (SI − 6)
L = r − r௠௜௡ Eq. (SI − 7)
y = (k + x + [FL]) − ඥ(k + x + [FL]2 − 4 ∗ x ∗ [FL]) Eq. (SI − 8)
y = r + r௠௜௡ − r௠௔௫ Eq. (SI − 9)
Where I = total intensity; P = perpendicular intensity; S = parallel intensity; G = instrument factor; r = anisotropy; Lb = ligand bound fraction; λ = change in intensity between bound and unbound states which […]
FA direct binding assays. […]
starting from 700 μM, diluted over 24 points in a 1/2 regime using the FAM-Ahx-labeled peptides at a final fixed concentration of 50 nM per well.

[6] = target: T2, Aurora-A 122-403 (Homo sapiens, UniProt O14965); assay: fluorescence anisotropy competition
T2 chain: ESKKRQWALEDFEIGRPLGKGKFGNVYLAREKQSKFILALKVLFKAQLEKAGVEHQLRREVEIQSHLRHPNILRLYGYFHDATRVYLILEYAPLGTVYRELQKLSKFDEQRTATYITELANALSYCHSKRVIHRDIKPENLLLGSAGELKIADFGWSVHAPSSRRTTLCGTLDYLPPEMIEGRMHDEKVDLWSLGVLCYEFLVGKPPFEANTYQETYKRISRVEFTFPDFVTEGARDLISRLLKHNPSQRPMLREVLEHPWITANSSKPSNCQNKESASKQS

[7] = as E43, Buffer 1 – 25 mM HEPES, 150 mM NaCl, 5 mM MgCl2, pH= 7.5
[8] = as E43, Buffer 2 – 25 mM Tris, 150 mM NaCl, 5 mM MgCl2, pH= 7.5
[9] = as E43, Buffer 3 – 25 mM HEPES, 5 mM MgCl2, pH= 7.5
[10] = as E43, Buffer 4 – 25 mM HEPES, 150 mM NaCl, 5 mM MgCl2, pH= 6.0
[11] = as E43, Buffer 5 – 25 mM HEPES, 150 mM NaCl, 5 mM MgCl2, pH= 8.0

Molecule: CC(=O)N[C@@H](CC(C)C)C(=O)N[C@@H](CCC(=O)O)C(=O)N[C@@H](CC(C)C)C(=O)N[C@@H](CCCCN)C(=O)N[C@@H](CCC(=O)O)C(=O)N[C@@H](CCC(=O)O)C(=O)N[C@@H](CO)C(=O)N[C@@H](Cc1ccccc1)C(=O)N[C@@H](CCCNC(=N)N)C(=O)N[C@@H](CC(=O)O)C(=O)N1CCC[C@H]1C(=O)N[C@@H](C)C(=O)N[C@@H](CCC(=O)O)C(=O)N[C@H](C(=O)N[C@@H](CC(C)C)C(N)=O)C(C)C [TACC3 518-532]
half-life at 100 µM [1]: 32 ± 4 min
IC50 [2]: 123 ± 6 µM
Kd ([3]; N restrained fit, Run 1): 30.3 µM
Kd ([3]; N restrained fit, Run 2): 34.5 µM
Kd ([3]; N unrestrained fit, Run 1): 46 µM
Kd ([3]; N unrestrained fit, Run 2): 36.8 µM

Molecule: CC(C)C[C@H](NC(=O)[C@@H](NC(=O)[C@H](CCC(=O)O)NC(=O)[C@H](C)NC(=O)[C@@H]1C[C@@H](F)CN1C(=O)[C@H](CC(=O)O)NC(=O)[C@@H]1CSCc2ccc(cc2)-c2ccc(cc2)CSC[C@H](NC(=O)[C@H](CCC(=O)O)NC(=O)[C@H](CC(C)C)NC(=O)CCCCCNC(=O)c2ccc3c(c2)C(=O)OC32c3ccc(O)cc3Oc3cc(O)ccc32)C(=O)N[C@@H](CCCCN)C(=O)N[C@@H](CCC(=O)O)C(=O)N[C@@H](CCC(=O)O)C(=O)N[C@@H](CO)C(=O)N[C@@H](Cc2ccc(I)cc2)C(=O)N1)C(C)C)C(N)=O [FAM-Ahx-TACC3 518-532-L/R-Bph-IF/fP] ({5FAM-Ahx}-LECKEES[Phe(4-I)]CD[Pro(trans-4-F)]AEVL-NH2; linker 3-9 via Biphenyl(4,4'-CH2)2)
ΔΔGConstrained-WT ([4]; VT-FA Van't Hoff, 50 nM FAM-Ahx tracers, 25-35 °C, constrained minus linear FAM-Ahx-TACC3 518-532, Buffer 1 – 25 mM HEPES, 150 mM NaCl, 5 mM MgCl2, pH= 7.5, triplicate): -4.50 ± 3.6 kJ mol -1
ΔTΔSConstrained-WT [4, 7]: -17.91 ± 2.4 kJ mol -1
ΔΔHConstrained-WT [4, 7]: 14.18 ± 2.5 kJ mol -1
ΔTΔSConstrained-WT [4, 8]: -17.85 ± 1.6 kJ mol -1
ΔΔGConstrained-WT [4, 8]: -3.17 ± 2.0 kJ mol -1
ΔΔHConstrained-WT [4, 8]: 14.67 ± 0.4 kJ mol -1
ΔTΔSConstrained-WT [4, 9]: -22.94 ± 2.9 kJ mol -1
ΔΔGConstrained-WT [4, 9]: -6.82 ± 5.9 kJ mol -1
ΔΔHConstrained-WT [4, 9]: 16.12 ± 3.0 kJ mol -1
ΔTΔSConstrained-WT [4, 10]: -11.33 ± 2.0 kJ mol -1
ΔΔGConstrained-WT [4, 10]: -4.06 ± 4.1 kJ mol -1
ΔΔHConstrained-WT [4, 10]: 7.27 ± 2.1 kJ mol -1
ΔTΔSConstrained-WT [4, 11]: -13.22 ± 0.9 kJ mol -1
ΔΔGConstrained-WT [4, 11]: -3.02 ± 1.8 kJ mol -1
ΔΔHConstrained-WT [4, 11]: 10.19 ± 0.9 kJ mol -1
Kd ([5]; Table S6, direct FA titration, Tris buffer pH 7.5, mean ± SD, n = 6, read-out: Kd): 1.42 ± 0.24 µM
ΔG ([5]; Table S6, from direct FA titration, mean ± SD, n = 6): -33.4 ± 0.5

Molecule: EES[Phe(4-Cl)]RDPAEVLGTGA [TACC3 (4-Cl)Phe525 522-536]
IC50 [6]: 46 µM

Molecule: EES[Phe(4-Br)]RDPAEVLGTGA [TACC3 (4-Br)Phe525 522-536]
IC50 [6]: 34 µM

Other lines, results leading:

IC50 [6]: > 300 µM
Molecule: EESFRDPAE[Nle]LGTGA [TACC3 V531nL 522-536]

IC50 [6]: 60 µM
Molecule: EESFRD[trans‑Pro(4-F)]AEVLGTGA [TACC3 trans-(4-F)Pro528 522-536]

IC50 [6]: > 200 µM
Molecule: EESFRD[cis‑Pro(4-F)]AEVLGTGA [TACC3 cis-(4-F)Pro528 522-536]

IC50 [6]: 213 µM
Molecule: EESFRDPAEV[Nle]GTGA [TACC3 L532nL 522-536]

IC50 [6]: ~30 µM
Molecule: LELKEESFRDPAEVL (not fully specified; L520C/R526C biphenyl constraint; Aurora-A C290A+C393A) [TACC3 L/R-Bph 518-532]
